Data on eight molecules can be found in US20260167623A1 (NIKANG THERAPEUTICS, INC., priority 2022, published 2026).

Each structure is given as a SMILES string. Where only a bound is given, the exact number is not on record here.

The test concerns the target T1, CDK2 (Homo sapiens, UniProt P24941).
T1 construct: High-Throughput Measurement of Cellular Endogenous CDK2; endogenous in cells; host or cells: OVCAR3
Put plainly: Inhibition of CDK2: phospho-Rb (S807/811) HTRF measurement in OVCAR3 cells, 24 h. It is filed as cell-based. The note with it: 24 h compound treatment, read-out: pRB_OVCAR3_24h. The essentials:
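IC50 came from a four-parameter fit of DMSO-normalized TR-FRET ratios (665/620 nm) reporting phospho-Rb S807/811. Lysates were taken from OVCAR3 cultures treated 24 h with compound (0.3 to 10,000 nM) and incubated 4 h at room temperature with the antibody pair.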
With `Cn1nc(N2CCC(=O)NC2=O)c2cc(C3CCN(CC4CCN(c5cccc(S(=O)(=O)N6CCC(Nc7ncc(C(F)(F)F)cn7)CC6)c5)CC4)CC3)ccc21` [Example 137, 1-(1-methyl-5-(1-((1-(3-((4-((5-(trifluoro-methyl)pyrimidin-2-yl)amino)piperidin-1-yl)sulfonyl)phenyl)piperidin-4-yl)methyl)-piperidin-4-yl)-1H-indazol-3-yl)dihydropyrimidine-2,4(1H,3H)-dione], the IC50 lay in the range of 100 to 500 nM.
Take `Cn1nc(N2CCC(=O)NC2=O)c2ccc(N3CCC(CN4CCN(c5cccc(S(=O)(=O)N6CCC(Nc7ncc(Cl)cn7)CC6)c5)CC4)CC3)cc21` [Example 138, 1-(6-(4-((4-(3-((4-((5-chloropyrimidin-2-yl)amino)piperidin-1-yl)sulfonyl)phenyl)-piperazin-1-yl)methyl)piperidin-1-yl)-1-methyl-1H-indazol-3-yl)dihydropyrimidine-2,4(1H,3H)-dione]: the IC50 is more than 2500 nM.
On to `Cn1nc(N2CCC(=O)NC2=O)c2ccc(C3CCN(Cc4ccc(C5CCN(S(=O)(=O)N6CCC(Nc7ncc(Cl)cn7)CC6)CC5)cc4)CC3)cc21` [Example 139, 1-(6-(1-(4-(1-((4-((5-chloropyrimidin-2-yl)amino)piperidin-1-yl)sulfonyl)piperidin-4-yl)benzyl)piperidin-4-yl)-1-methyl-1H-indazol-3-yl)dihydropyrimidine-2,4(1H,3H)-dione], for which the IC50 is more than 2500 nM.
With `Cn1nc(N2CCC(=O)NC2=O)c2ccc(C3CCN(CC4CCN(c5cc(S(=O)(=O)N6CCC(Nc7ncc(Cl)cn7)CC6)ccc5F)CC4)CC3)cc21` [Example 140, 1-(6-(1-((1-(5-((4-((5-chloropyrimidin-2-yl)amino)piperidin-1-yl)sulfonyl)-2-fluorophenyl)piperidin-4-yl)methyl)-piperidin-4-yl)-1-methyl-1H-indazol-3-yl)dihydropyrimidine-2,4(1H,3H)-dione], the IC50 was 1 to 100 nM.
Regarding `CCOC(=O)C1(CN2CCC(c3ccc4c(N5CCC(=O)NC5=O)nn(C)c4c3)CC2)CCN(c2cccc(S(=O)(=O)N3CCC(Nc4ncc(Cl)cn4)CC3)c2)CC1` [Example 141, ethyl 1-(3-((4-((5-chloropyrimidin-2-yl)amino)piperidin-1-yl)sulfonyl)phenyl)-4-((4-(3-(2,4-dioxotetrahydropyrimidin-1(2H)-yl)-1-methyl-1H-indazol-6-yl)piperidin-1-yl)methyl)piperidine-4-carboxylate], the IC50 was in the range of 500 to 2500 nM.
Then `Cn1nc(N2CCC(=O)NC2=O)c2ccc(C3CCN(CC4CCN(c5cc(S(=O)(=O)N6CCC(Nc7ncc(C(F)(F)F)cn7)CC6)ccc5F)CC4)CC3)cc21` [Example 142, 1-(6-(1-((1-(2-fluoro-5-((4-((5-(trifluoro-methyl)pyrimidin-2-yl)amino)piperidin-1-yl)sulfonyl)phenyl)piperidin-4-yl)methyl)-piperidin-4-yl)-1-methyl-1H-indazol-3-yl)dihydropyrimidine-2,4(1H,3H)-dione], with 1 to 100 nM; and `Cn1nc(N2CCC(=O)NC2=O)c2ccc(N3CCN(CC4CCN(c5cccc(S(=O)(=O)N6CCC(Nc7ncc(Cl)cn7)CC6)c5)CC4)C4CC43)cc21` (centres unmarked) [Example 143, 1-(6-(5-((1-(3-((4-((5-chloropyrimidin-2-yl)amino)piperidin-1-yl)sulfonyl)phenyl)-piperidin-4-yl)methyl)-2,5-diazabicyclo-[4.1.0]heptan-2-yl)-1-methyl-1H-indazol-3-yl)dihydropyrimidine-2,4(1H,3H)-dione], with 500 to 2500 nM; and `Cn1nc(N2CCC(=O)NC2=O)c2ccc(C3CCN(C[C@H]4CCN(c5cccc(S(=O)(=O)N6CCC(Nc7ncc(Cl)cn7)CC6)c5)C4)CC3)cc21` [Example 144, (R)-1-(6-(1-((1-(3-((4-((5-chloropyrimidin-2-yl)amino)piperidin-1-yl)sulfonyl)phenyl)-pyrrolidin-3-yl)methyl)piperidin-4-yl)-1-methyl-1H-indazol-3-yl)dihydropyrimidine-2,4(1H,3H)-dione], with 100 to 500 nM.
